Results from ChEMBL document CHEMBL1138879 (J Med Chem, 2006).
pIC50: −log10 of the molar value.

Experiments:
[1] = in vivo; details: dog, iv, 5 mg/kg
[2] = in vivo; details: mouse, iv, 1 mg/kg
[3] = in vivo; details: dog, iv, 5 mg/kg; remark: listed apart in the source
[4] = in vivo; details: mouse, po, 1 mg/kg
[5] = in vivo; details: dog, iv, 5 mg/kg; remark: listed apart in the source
[6] = in vivo; details: dog, po, 10 mg/kg
[7] = in vivo; details: mouse, iv, 1 mg/kg; remark: listed apart in the source
[8] = in vivo; details: mouse, iv, 1 mg/kg; remark: listed apart in the source
[9] = in vivo; details: dog, plasma, po, 10 mg/kg
[10] = in vivo; details: mouse, plasma, po, 1 mg/kg
[11] = in vivo; details: dog, po, 10 mg/kg; remark: listed apart in the source
[12] = in vivo; details: dog, iv, 5 mg/kg; remark: listed apart in the source
[13] = in vivo; details: dog, po, 10 mg/kg; remark: listed apart in the source
[14] = system: PBMC; assay: cells; details: Homo sapiens
[15] = target: hERG (KCNH2) (Homo sapiens, UniProt Q12809); assay: in vitro
Sequence of hERG (KCNH2) (Q12809 whole entry): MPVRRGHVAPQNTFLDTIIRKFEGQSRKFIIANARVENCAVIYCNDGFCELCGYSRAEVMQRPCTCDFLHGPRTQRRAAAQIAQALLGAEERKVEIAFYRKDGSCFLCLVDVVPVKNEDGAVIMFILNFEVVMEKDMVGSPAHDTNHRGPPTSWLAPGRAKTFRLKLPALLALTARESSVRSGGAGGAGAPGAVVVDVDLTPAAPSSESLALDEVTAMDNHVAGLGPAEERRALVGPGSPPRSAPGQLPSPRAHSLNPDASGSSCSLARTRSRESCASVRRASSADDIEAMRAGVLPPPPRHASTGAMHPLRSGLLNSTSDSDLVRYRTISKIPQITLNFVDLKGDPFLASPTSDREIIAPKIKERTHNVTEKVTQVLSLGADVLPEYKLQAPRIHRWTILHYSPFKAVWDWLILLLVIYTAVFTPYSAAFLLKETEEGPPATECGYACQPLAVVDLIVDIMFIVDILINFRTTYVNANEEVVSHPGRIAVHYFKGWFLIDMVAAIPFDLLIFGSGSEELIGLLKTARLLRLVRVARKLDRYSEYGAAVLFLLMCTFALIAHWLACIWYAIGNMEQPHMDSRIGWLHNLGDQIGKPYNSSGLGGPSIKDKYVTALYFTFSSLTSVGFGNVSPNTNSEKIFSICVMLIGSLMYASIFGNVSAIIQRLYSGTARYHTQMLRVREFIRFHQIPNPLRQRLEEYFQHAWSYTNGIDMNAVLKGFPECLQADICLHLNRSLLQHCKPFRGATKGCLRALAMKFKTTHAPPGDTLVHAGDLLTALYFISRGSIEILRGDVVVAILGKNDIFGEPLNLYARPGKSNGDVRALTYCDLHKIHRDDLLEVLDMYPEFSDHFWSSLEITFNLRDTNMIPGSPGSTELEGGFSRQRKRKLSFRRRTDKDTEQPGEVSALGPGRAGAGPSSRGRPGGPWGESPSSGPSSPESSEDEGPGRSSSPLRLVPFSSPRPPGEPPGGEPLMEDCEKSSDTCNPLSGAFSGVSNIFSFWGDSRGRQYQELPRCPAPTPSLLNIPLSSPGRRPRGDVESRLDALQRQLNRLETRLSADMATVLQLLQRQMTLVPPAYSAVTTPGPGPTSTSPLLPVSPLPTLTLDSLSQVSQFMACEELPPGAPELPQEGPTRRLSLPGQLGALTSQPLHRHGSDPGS

[16] = in vivo; details: mouse, iv, 1 mg/kg; remark: listed apart in the source
[17] = in vivo; details: mouse, po, 1 mg/kg; remark: listed apart in the source
[18] = in vivo; details: mouse, po, 1 mg/kg; remark: listed apart in the source

MRT [1]: 3.3 h
MRT [2]: 4.4 h
clearance [3]: 3.6 mL/min/kg
Cmax [4]: 0.083 µM
half-life [5]: 3.5 h
Cmax [6]: 18.9 µM
clearance [7]: 32 mL/min/kg
half-life [8]: 5.4 h
AUC [9]: 115 µM·h
AUC [10]: 0.306 µM·h
Tmax [11]: 2 h
Vd [12]: 0.7 L/kg
bioavailability [13]: 100%
Vd [16]: 8.5 L/kg
Tmax [17]: 0.25 h
bioavailability [18]: 41%
SMILES: CN1C(=O)N(c2cc(Cl)cc(Cl)c2)C(=O)[C@]12CN(Cc1cc(C(=O)O)cs1)C[C@H]2c1ccc(C#N)cc1
pIC50 [14]: 6.55
inhibition at 30 µM [15]: 24%
